Data taken from ChEMBL document CHEMBL5550102, “Caged xanthone derivatives to promote mitochondria-mediated apoptosis in breast cancer cells” (Bioorg Med Chem, 2024).

How the values were obtained:
[1] = tested on: HepG2; test: Cytotoxicity against human HepG2 cells incubated for 72 hrs by CCK8 assay; assay type: functional, cell-based; settings: HepG2, 72 h
[2] = tested on: MDA-MB-231; test: Cytotoxicity against human MDA-MB-231 cells incubated for 72 hrs by CCK8 assay; assay type: functional, cell-based; settings: MDA-MB-231, 72 h
[3] = tested on: A549; test: Cytotoxicity against human A549 cells incubated for 72 hrs by CCK8 assay; assay type: functional, cell-based; settings: A549, 72 h
[4] = tested on: MDA-MB-231; test: Induction of mitochondrial dysfunction in human MDA-MB-231 cells assessed as cell with low mitochondrial membrane potential at 20 uM incubated for 48 hrs by JC-1 staining based flow cytometry (reference value: 2.50 %); assay type: functional
[5] = tested on: MDA-MB-231; test: Induction of mitochondrial dysfunction in human MDA-MB-231 cells assessed as cell with low mitochondrial membrane potential at 17.5 uM incubated for 24 hrs by JC-1 staining based flow cytometry (reference value: 3.68 %); assay type: functional
[6] = tested on: MDA-MB-231; test: Induction of apoptosis in human MDA-MB-231 cells assessed as early apoptotic cells at 20 uM incubated for 24 hrs by Annexin V-FITC/PI staining based flow cytometry (reference value: 7.39 %); assay type: functional
[7] = tested on: MDA-MB-231; test: Induction of apoptosis in human MDA-MB-231 cells assessed as late apoptotic cells at 15 uM incubated for 48 hrs by Annexin V-FITC/PI staining based flow cytometry (reference value: 2.79 %); assay type: functional
[8] = tested on: MDA-MB-231; test: Induction of apoptosis in human MDA-MB-231 cells assessed as late apoptotic cells at 20 uM incubated for 24 hrs by Annexin V-FITC/PI staining based flow cytometry (reference value: 3.36 %); assay type: functional
[9] = tested on: MDA-MB-231; test: Induction of cell cycle arrest at G2/M phase in human MDA-MB-231 cells incubated for 12 to 24 hrs by PI/RNase staining based flow cytometry; assay type: functional; settings: dose <= 20.0 µM, time 12-24 hrs
[10] = tested on: MDA-MB-231; test: Induction of apoptosis in human MDA-MB-231 cells assessed as necrotic cells at 17.5 uM incubated for 24 hrs by Annexin V-FITC/PI staining based flow cytometry (reference value: 1.06 %); assay type: functional
[11] = tested on: MDA-MB-231; test: Induction of apoptosis in human MDA-MB-231 cells assessed as late apoptotic cells at 15 uM incubated for 24 hrs by Annexin V-FITC/PI staining based flow cytometry (reference value: 3.36 %); assay type: functional
[12] = tested on: MDA-MB-231; test: Induction of mitochondrial dysfunction in human MDA-MB-231 cells assessed as cell with low mitochondrial membrane potential at 15 uM incubated for 24 hrs by JC-1 staining based flow cytometry (reference value: 3.68 %); assay type: functional
[13] = tested on: MDA-MB-231; test: Induction of apoptosis in human MDA-MB-231 cells assessed as late apoptotic cells at 20 uM incubated for 48 hrs by Annexin V-FITC/PI staining based flow cytometry (reference value: 2.79 %); assay type: functional
[14] = tested on: MDA-MB-231; test: Induction of apoptosis in human MDA-MB-231 cells assessed as late apoptotic cells at 17.5 uM incubated for 24 hrs by Annexin V-FITC/PI staining based flow cytometry (reference value: 3.36 %); assay type: functional
[15] = tested on: MDA-MB-231; test: Induction of apoptosis in human MDA-MB-231 cells assessed as early apoptotic cells at 20 uM incubated for 48 hrs by Annexin V-FITC/PI staining based flow cytometry (reference value: 5.72 %); assay type: functional
[16] = tested on: MDA-MB-231; test: Induction of apoptosis in human MDA-MB-231 cells assessed as early apoptotic cells at 17.5 uM incubated for 24 hrs by Annexin V-FITC/PI staining based flow cytometry (reference value: 7.39 %); assay type: functional
[17] = tested on: MDA-MB-231; test: Induction of apoptosis in human MDA-MB-231 cells assessed as early apoptotic cells at 15 uM incubated for 48 hrs by Annexin V-FITC/PI staining based flow cytometry (reference value: 5.72 %); assay type: functional
[18] = tested on: MDA-MB-231; test: Induction of mitochondrial dysfunction in human MDA-MB-231 cells assessed as cell with low mitochondrial membrane potential at 20 uM incubated for 24 hrs by JC-1 staining based flow cytometry (reference value: 3.68 %); assay type: functional
[19] = tested on: MDA-MB-231; test: Induction of apoptosis in human MDA-MB-231 cells assessed as early apoptotic cells at 15 uM incubated for 24 hrs by Annexin V-FITC/PI staining based flow cytometry (reference value: 7.39 %); assay type: functional
[20] = tested on: MDA-MB-231; test: Induction of apoptosis in human MDA-MB-231 cells assessed as viable cells at 20 uM incubated for 48 hrs by Annexin V-FITC/PI staining based flow cytometry (reference value: 91.2 %); assay type: functional; settings: read-out: Activity
[21] = tested on: MDA-MB-231; test: Induction of apoptosis in human MDA-MB-231 cells assessed as increase in cleaved caspase-9 level incubated for 24 to 48 hrs by Western blot analysis; assay type: functional, cell-based; settings: dose <= 20.0 µM, time 24-48 hrs
[22] = tested on: MDA-MB-231; test: Induction of apoptosis in human MDA-MB-231 cells assessed as increase in cleaved caspase-9 level upto 20 uM by Western blot analysis; assay type: functional, cell-based; settings: time 24-48 hrs, TDE = time-dependent effect
[23] = tested on: MDA-MB-231; test: Induction of apoptosis in human MDA-MB-231 cells assessed as necrotic cells at 17.5 uM incubated for 48 hrs by Annexin V-FITC/PI staining based flow cytometry (reference value: 0.33 %); assay type: functional
[24] = tested on: MDA-MB-231; test: Induction of apoptosis in human MDA-MB-231 cells assessed as necrotic cells at 15 uM incubated for 24 hrs by Annexin V-FITC/PI staining based flow cytometry (reference value: 1.06 %); assay type: functional
[25] = tested on: MDA-MB-231; test: Induction of mitochondrial dysfunction in human MDA-MB-231 cells assessed as cell with low mitochondrial membrane potential at 17.5 uM incubated for 48 hrs by JC-1 staining based flow cytometry (reference value: 2.50 %); assay type: functional
[26] = tested on: MDA-MB-231; test: Induction of apoptosis in human MDA-MB-231 cells assessed as viable cells at 20 uM incubated for 24 hrs by Annexin V-FITC/PI staining based flow cytometry (reference value: 88.2 %); assay type: functional; settings: read-out: Activity
[27] = tested on: MDA-MB-231; test: Induction of cell cycle arrest at G2/M phase in human MDA-MB-231 cells at 20 uM incubated for 12 to 24 hrs by PI/RNase staining based flow cytometry relative to control; assay type: functional; settings: time 12-24 hrs
[28] = tested on: MDA-MB-231; test: Induction of apoptosis in human MDA-MB-231 cells assessed as necrotic cells at 20 uM incubated for 48 hrs by Annexin V-FITC/PI staining based flow cytometry (reference value: 0.33 %); assay type: functional
[29] = tested on: MDA-MB-231; test: Induction of mitochondrial dysfunction in human MDA-MB-231 cells assessed as cell with low mitochondrial membrane potential at 15 uM incubated for 48 hrs by JC-1 staining based flow cytometry (reference value: 2.50 %); assay type: functional
[30] = tested on: MDA-MB-231; test: Induction of apoptosis in human MDA-MB-231 cells assessed as necrotic cells at 15 uM incubated for 48 hrs by Annexin V-FITC/PI staining based flow cytometry (reference value: 0.33 %); assay type: functional
[31] = tested on: MDA-MB-231; test: Induction of apoptosis in human MDA-MB-231 cells assessed as viable cells at 15 uM incubated for 24 hrs by Annexin V-FITC/PI staining based flow cytometry (reference value: 88.2 %); assay type: functional; settings: read-out: Activity
[32] = tested on: MDA-MB-231; test: Induction of apoptosis in human MDA-MB-231 cells assessed as viable cells at 17.5 uM incubated for 24 hrs by Annexin V-FITC/PI staining based flow cytometry (reference value: 88.2 %); assay type: functional; settings: read-out: Activity
[33] = tested on: MDA-MB-231; test: Induction of apoptosis in human MDA-MB-231 cells assessed as viable cells at 15 uM incubated for 48 hrs by Annexin V-FITC/PI staining based flow cytometry (reference value: 91.2 %); assay type: functional; settings: read-out: Activity
[34] = tested on: MDA-MB-231; test: Induction of apoptosis in human MDA-MB-231 cells assessed as early apoptotic cells at 17.5 uM incubated for 48 hrs by Annexin V-FITC/PI staining based flow cytometry (reference value: 5.72 %); assay type: functional
[35] = tested on: MDA-MB-231; test: Induction of apoptosis in human MDA-MB-231 cells assessed as viable cells at 17.5 uM incubated for 48 hrs by Annexin V-FITC/PI staining based flow cytometry (reference value: 91.2 %); assay type: functional; settings: read-out: Activity
[36] = tested on: MDA-MB-231; test: Induction of apoptosis in human MDA-MB-231 cells assessed as necrotic cells at 20 uM incubated for 24 hrs by Annexin V-FITC/PI staining based flow cytometry (reference value: 1.06 %); assay type: functional
[37] = tested on: MDA-MB-231; test: Induction of apoptosis in human MDA-MB-231 cells assessed as late apoptotic cells at 17.5 uM incubated for 48 hrs by Annexin V-FITC/PI staining based flow cytometry (reference value: 2.79 %); assay type: functional

COC(=O)C[C@]12C=C3C(=O)c4ccccc4O[C@@]3(CC1)[C@H]1C(=O)N(c3ccc(OC)cc3)C(=O)[C@H]12
IC50 [1]: > 50 µM
IC50 [2]: > 50 µM
IC50 [3]: > 50 µM

COC(=O)C[C@]12C=C3C(=O)c4cccc(C)c4O[C@@]3(CC1)[C@H]1C(=O)N(c3ccc(C(F)(F)F)cc3)C(=O)[C@H]12
IC50 [1]: 32.9 µM
IC50 [2]: 27 µM
IC50 [3]: 40.1 µM

COC(=O)C[C@]12C=C3C(=O)c4ccccc4O[C@@]3(CC1)[C@H]1C(=O)N(c3ccc(C(F)(F)F)cc3)C(=O)[C@H]12
Activity [4]: 96.87%
IC50 [1]: 15.9 µM
Activity [5]: 53%
Activity [6]: 18.8%
Activity [7]: 7.51%
Activity [8]: 16.8%
Activity [9]: Dose-Dependent Effect
Activity [10]: 1.7%
Activity [11]: 5.84%
Activity [12]: 29.07%
Activity [13]: 15.2%
Activity [14]: 10.3%
Activity [15]: 56.9%
Activity [16]: 15.3%
Activity [17]: 24.4%
Activity [18]: 59.57%
Activity [19]: 9.01%
viability at 20 µM [20]: 26%
Activity [21]: Dose-Dependent Effect
Activity [22]: Tde
Activity [23]: 1.38%
Activity [24]: 0.98%
Activity [25]: 92.63%
viability at 20 µM [26]: 62.1%
Activity [27]: >15%
IC50 [2]: 13 µM
Activity [28]: 1.87%
Activity [29]: 70.23%
Activity [30]: 0.7%
viability at 15 µM [31]: 84.2%
viability at 17.5 µM [32]: 72.8%
viability at 15 µM [33]: 67.4%
Activity [34]: 43.4%
IC50 [3]: 19.3 µM
viability at 17.5 µM [35]: 40.7%
Activity [36]: 2.33%
Activity [37]: 14.5%

CC(=O)O[C@H]1C(=O)[C@@]2(C)[C@H]([C@H](OC(=O)c3ccccc3)[C@]3(O)C[C@H](OC(=O)[C@H](O)[C@@H](NC(=O)c4ccccc4)c4ccccc4)C(C)=C1C3(C)C)[C@]1(OC(C)=O)CO[C@@H]1C[C@@H]2O [PACLITAXEL]
IC50 [1]: 0.06 µM
IC50 [2]: 0.11 µM
IC50 [3]: 0.4 µM

COC(=O)C[C@]12C=C3C(=O)c4cccc(C)c4O[C@@]3(CC1)[C@H]1C(=O)N(c3ccc(Br)cc3)C(=O)[C@H]12
IC50 [1]: 22.5 µM
IC50 [2]: 23.4 µM
IC50 [3]: 29.1 µM

COC(=O)C[C@]12C=C3C(=O)c4ccccc4O[C@@]3(CC1)[C@H]1C(=O)N(C3CCCCC3)C(=O)[C@H]12
IC50 [1]: > 50 µM
IC50 [2]: > 50 µM
IC50 [3]: > 50 µM

COC(=O)C[C@]12C=C3C(=O)c4ccccc4O[C@@]3(CC1)[C@H]1C(=O)NC(=O)[C@H]12
IC50 [1]: > 50 µM
IC50 [2]: > 50 µM
IC50 [3]: > 50 µM

COC(=O)C[C@]12C=C3C(=O)c4ccccc4O[C@@]3(CC1)[C@H]1C(=O)N(Cc3ccccc3)C(=O)[C@H]12
IC50 [1]: > 50 µM
IC50 [2]: > 50 µM
IC50 [3]: > 50 µM

COC(=O)C[C@]12C=C3C(=O)c4ccccc4O[C@@]3(CC1)[C@H]1C(=O)N(c3ccc(Br)cc3)C(=O)[C@H]12
IC50 [1]: 25.6 µM
IC50 [2]: 24.4 µM
IC50 [3]: 24.3 µM

COC(=O)C[C@]12C=C3C(=O)c4cc(F)ccc4O[C@@]3(CC1)[C@H]1C(=O)N(c3ccc(Br)cc3)C(=O)[C@H]12
IC50 [1]: > 50 µM
IC50 [2]: > 50 µM
IC50 [3]: > 50 µM

COC(=O)C[C@]12C=C3C(=O)c4cc(F)ccc4O[C@@]3(CC1)[C@H]1C(=O)N(c3ccc(C(F)(F)F)cc3)C(=O)[C@H]12
IC50 [1]: > 50 µM
IC50 [2]: > 50 µM
IC50 [3]: > 50 µM

COC(=O)C[C@]12C=C3C(=O)c4ccccc4O[C@@]3(CC1)[C@H]1C(=O)N(C(C)(C)C)C(=O)[C@H]12
IC50 [1]: > 50 µM
IC50 [2]: > 50 µM
IC50 [3]: > 50 µM

COC(=O)C[C@]12C=C3C(=O)c4ccccc4O[C@@]3(CC1)[C@H]1C(=O)N(c3ccccc3)C(=O)[C@H]12
IC50 [1]: 23.6 µM
IC50 [2]: 30.5 µM
IC50 [3]: 41.9 µM

COC(=O)C[C@]12C=C3C(=O)c4ccccc4O[C@@]3(CC1)[C@H]1C(=O)N(C)C(=O)[C@H]12
IC50 [1]: 16.7 µM
IC50 [2]: 37.6 µM
IC50 [3]: 37.2 µM
